Laboratory results from patent US20180093956A1, “SUBSTITUTED PHTHALAZINES” (AbbVie Inc., priority 2015, published 2018).
pEC50, pIC50: −log10 of the molar value. Where two headings read alike, the source gives them in different places.

Assays:
SUV420H1 enzyme = SUV420H1 enzyme (Homo sapiens, UniProt Q4FZB7); assay: TR-FRET SAH SUV420H1 enzyme inhibition assay; assay type: biochemical; details: Histone Peptide H4(8-30)me1 and SAM, TR-FRET detection of SAH, read-out: TR-FRET SAH_SUV420H1 IC50
Protocol: Test compounds were dispensed by a Labcyte Echo in 384-well low volume assay plates with 3-fold serial dilutions from 50 μM to 0.00075 μM. 5 μL of SUV420H1 enzyme (Abbvie) at 90 nM was added to all wells except for the no enzyme control wells and incubated for 30 minutes at room temperature before 5 μL of Histone Peptide H4(8-30)me1 (Anaspec) at 5 μM and SAM at 4 μM was added to all wells. The plates were incubated in a humidified chamber overnight at room temp and then 10 μL of the detection reagent that contained RIPA buffer (50 mM Tris-HCl, pH 8.0, 150 mM sodium chloride, 1.0% Igepal CA-630 (NP-40), 0.5% sodium deoxycholate and 0.1% sodium dodecyl sulfate) (Sigma) with 2 nM of Terbium chelate anti S-adenosyl-L-homocysteine (SAH) (Abbvie) antibody and Oregon Green labeled SAH at 4 nM was added. The plates were further incubated for 4 hours at room temperature. The plates were read in a Perkin Elmer Envision using a TR-FRET protocol with Excitation set at 335 nm and Emission at 520 and 495 nm. To generate dose response curves the data is normalized to percent inhibition by setting the average of the plus and minus enzyme control wells to 0% and 100% inhibition respectively. The ICso values for the compounds are generated by fitting the normalized data with Accelrys Assay Explorer 3.3 to a sigmoidal curve model using […], Y=(100*x^n)/(K^n+x^n), where Y is the measured response, x is the compound concentration, n is the Hill Slope and K is the IC50 and the lower and higher asymptotes are constrained to 0 and 100 respectively.

[1] = test system: H4K20me3 in PC-3 cells (SUV420H1 cellular activity); assay: H4K20me3 Cellular PD Assay (high content microscopy); assay type: cell-based; details: treated for 72 hours, H4K20me3 immunofluorescence, read-out: H4K20me3 Inhibition EC50
Protocol: A high content microscopy-based PD assay was used to analyze the decrease of H4K20me3 upon inhibition of SUV420H1 cellular activity. PC-3 cells were plated at 3,000 cells per well in black Collagen I coated 96-well plates (Perkin Elmer, #6005810) in RPMI supplemented with 10% heat inactivated FBS, 1% sodium pyruvate and 1% non-essential amino acids in a 37° C. tissue culture incubator. At 24 hours post seeding, cells were treated with the indicated compounds for 72 hours in an 8-point dose response using half log dilutions from […] and then fixed in 2% formaldhyde (Polysciences, Inc., #04018) for 10 minutes at room temperature. Cells were washed in PBS and permeablized in 0.1% Triton X-100 for 10 minutes at room temperature. After blocking in 1% BSA (Sigma, #A7030) in PBS for 1 hour at room temperature, a mouse monoclonal antibody directed toward H4K20me3 (Santa Cruz, #sc-134216) in antibody dilution buffer (0.3% BSA in PBS) was added for 16 hours at 4° C. Cells were then washed 3 times in PBS and an Alexa Fluor 555 conjugated goat anti-mouse (Life Technologies #A-21424) secondary antibody was added for 1 hour at room temperature. Hoechst 33342 diluted 1:10000 (Life Technologies #H3570) was also added during the secondary antibody incubation. Cells were washed 3 times in PBS and stored in PBS at 4° C. Fluorescent images were acquired within 24 hours on a Cell Insight (Thermo Fisher Scientific) using the Target Activation algorithm. Objects were identified via nuclear Hoescht staining, and changes in average mean intensity in the fluorescent signals of H4K20me3 were quantified using the HCS View software platform (Thermo Fisher Scientific).

SUV420H1 enzyme, sequence (Q4FZB7 whole entry): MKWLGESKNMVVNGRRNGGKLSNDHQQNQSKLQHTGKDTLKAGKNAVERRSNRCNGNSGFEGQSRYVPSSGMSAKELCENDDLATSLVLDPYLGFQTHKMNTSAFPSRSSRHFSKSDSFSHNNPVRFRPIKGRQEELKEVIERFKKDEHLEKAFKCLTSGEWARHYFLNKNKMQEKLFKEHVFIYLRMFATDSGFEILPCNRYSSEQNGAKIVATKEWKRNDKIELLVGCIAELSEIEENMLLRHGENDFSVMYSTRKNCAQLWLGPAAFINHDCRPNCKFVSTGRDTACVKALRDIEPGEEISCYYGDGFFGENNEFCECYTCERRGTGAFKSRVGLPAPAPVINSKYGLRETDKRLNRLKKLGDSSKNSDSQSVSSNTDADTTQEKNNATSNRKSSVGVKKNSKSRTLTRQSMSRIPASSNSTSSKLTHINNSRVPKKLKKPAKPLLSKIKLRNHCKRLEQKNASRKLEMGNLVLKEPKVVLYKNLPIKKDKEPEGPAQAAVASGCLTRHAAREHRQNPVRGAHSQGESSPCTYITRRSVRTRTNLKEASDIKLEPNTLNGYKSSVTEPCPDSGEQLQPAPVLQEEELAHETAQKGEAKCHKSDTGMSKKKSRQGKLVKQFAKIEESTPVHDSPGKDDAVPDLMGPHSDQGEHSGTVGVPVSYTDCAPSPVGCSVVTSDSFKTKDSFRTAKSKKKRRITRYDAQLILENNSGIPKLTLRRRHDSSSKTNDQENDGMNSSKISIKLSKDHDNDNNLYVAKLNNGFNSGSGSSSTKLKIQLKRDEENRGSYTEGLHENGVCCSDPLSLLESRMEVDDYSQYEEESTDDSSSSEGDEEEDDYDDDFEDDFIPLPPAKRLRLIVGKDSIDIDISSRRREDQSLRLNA

pIC50 (SUV420H1 enzyme)	pEC50 ([1]; Homo sapiens)	pEC50 [1]	Molecule
7.04	5.95		COC(=O)c1nnc(NC2CCCC2)c2cc(Cl)c(Cl)cc12 [Example 37, methyl 6,7-dichloro-4-(cyclopentylamino)phthalazine-1-carboxylate]
7.03	5.94		Cn1ccc(-c2nnc(NC3CCCC3)c3cc(Cl)c(Cl)cc23)n1 [Example 4, 6,7-dichloro-N-cyclopentyl-4-(1-methyl-1H-pyrazol-3-yl)phthalazin-1-amine]
6.83	< 4.70		Cn1cc(NC(=O)c2nnc(NC3CCCC3)c3cc(Cl)c(Cl)cc23)cn1 [Example 54, 6,7-dichloro-4-(cyclopentylamino)-N-(1-methyl-1H-pyrazol-4-yl)phthalazine-1-carboxamide]
6.76		5.78	1-{4-[6,7-dichloro-4-(cyclopentylamino)phthalazin-1-yl]pyridin-2-yl}pyrrolidin-3-ol [Example 36]
6.28	5.98		Clc1cc2c(NC3CCCC3)nnc(-c3ccnc(N4CCNCC4)c3)c2cc1Cl [Example 18, 6,7-dichloro-N-cyclopentyl-4-[2-(piperazin-1-yl)pyridin-4-yl]phthalazin-1-amine]
	4.88		Cn1cc(C(=O)N2CC=C(c3nnc(NC4CCCC4)c4cc(Cl)c(Cl)cc34)CC2)cn1 [Example 78, {4-[6,7-dichloro-4-(cyclopentylamino)phthalazin-1-yl]-3,6-dihydropyridin-1(2H)-yl}(1-methyl-1H-pyrazol-4-yl)methanone]
	4.81		O=C(C1CC1)N1CC=C(c2nnc(NC3CCCC3)c3cc(Cl)c(Cl)cc23)CC1 [Example 70, cyclopropyl {4-[6,7-dichloro-4-(cyclopentylamino)phthalazin-1-yl]-3,6-dihydropyridin-1(2H)-yl}methanone]
6.71			CCNC(=O)c1nnc(NC2CCCC2)c2cc(Cl)c(Cl)cc12 [Example 45, 6,7-dichloro-4-(cyclopentylamino)-N-ethylphthalazine-1-carboxamide]
5.08			CN1CCN(c2cc(-c3nnc(NC4CCCC4)c4cc(Cl)c(Cl)cc34)ccn2)CC1 [Example 16, 6,7-dichloro-N-cyclopentyl-4-[2-(4-methylpiperazin-1-yl)pyridin-4-yl]phthalazin-1-amine]
4.95			CN(C)c1cc(-c2nnc(NC3CCCC3)c3cc(Cl)c(Cl)cc23)ccn1 [Example 32, 6,7-dichloro-N-cyclopentyl-4-[2-(dimethylamino)pyridin-4-yl]phthalazin-1-amine]
5.56			Clc1cc2c(NC3CCCC3)nnc(-c3ccc(N4CCCC4)nc3)c2cc1Cl [Example 31, 6,7-dichloro-N-cyclopentyl-4-[6-(pyrrolidin-1-yl)pyridin-3-yl]phthalazin-1-amine]
5.38			O=C(c1nnc(NC2CCCC2)c2cc(Cl)c(Cl)cc12)N1CCC(O)C1 (stereo not drawn) [Example 48, [6,7-dichloro-4-(cyclopentylamino)phthalazin-1-yl](3-hydroxypyrrolidin-1-yl)methanone]
6.34			O=S(=O)(C1CC1)N1CC=C(c2nnc(NC3CCCC3)c3cc(Cl)c(Cl)cc23)CC1 [Example 68, 6,7-dichloro-N-cyclopentyl-4-[1-(cyclopropylsulfonyl)-1,2,3,6-tetrahydropyridin-4-yl]phthalazin-1-amine]
5.22			O=C(Cn1cc(-c2nnc(NC3CCCC3)c3cc(Cl)c(Cl)cc23)cn1)N1CCCC1 [Example 58, 2-{4-[6,7-dichloro-4-(cyclopentylamino)phthalazin-1-yl]-1H-pyrazol-1-yl}-1-(pyrrolidin-1-yl)ethanone]
6.09			CN(CCO)c1cc(-c2nnc(NC3CCCC3)c3cc(Cl)c(Cl)cc23)ccn1 [Example 35, 2-[{4-[6,7-dichloro-4-(cyclopentylamino)phthalazin-1-yl]pyridin-2-yl}(methyl)amino]ethanol]
5.91			NC1CCN(c2ccc(-c3nnc(NC4CCCC4)c4cc(Cl)c(Cl)cc34)cn2)C1 (stereo not drawn) [Example 33, 4-[6-(3-aminopyrrolidin-1-yl)pyridin-3-yl]-6,7-dichloro-N-cyclopentylphthalazin-1-amine]
